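Grown in 96-well plates, cells were treated for 48 hours with each compound at five concentrations. Insufficient inhibition: endpoint recorded as highest concentration tested. At the TGI there is no net growth.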
Tests used:
Test in all cases: inhibition of tumour cell growth, NCI panel, 48 h
SW-620 colon = tested on: SW-620 colon
HOP-92 NSCLC = tested on: HOP-92 NSCLC
RPMI-8226 leukemia = tested on: RPMI-8226 leukemia
ACHN renal = tested on: ACHN renal
LOX IMVI melanoma = tested on: LOX IMVI melanoma
TK-10 renal = tested on: TK-10 renal
HL-60(TB) leukemia = tested on: HL-60(TB) leukemia
BT-549 breast = tested on: BT-549 breast
NCI/ADR-RES ovarian = tested on: NCI/ADR-RES ovarian
MDA-N = tested on: MDA-N

Row | SMILES | TGI (SW-620 colon) [µM] | TGI (HOP-92 NSCLC) [µM] | TGI (RPMI-8226 leukemia) [µM] | TGI (ACHN renal) [µM] | TGI (LOX IMVI melanoma) [µM] | TGI (TK-10 renal) [µM] | TGI (HL-60(TB) leukemia) [µM] | TGI (BT-549 breast) [µM] | TGI (NCI/ADR-RES ovarian) [µM] | TGI (MDA-N) [µM]
1 | CN(/N=N/c1nc[nH]c1C(N)=O)C1CCCCC1 | > 100 | > 100 | > 100 | > 100 | > 100 | > 100 | > 100 |  |  | 
2 | C=CC(C)(C)c1cc([C@@H]2COc3cc(O)ccc3C2=O)c(O)c(O)c1OC | > 100 | 49.4 |  | 31.4 | 66.8 | > 100 | 73.3 | 32.7 | 64.3 | 51
3 | COc1cc(OC)c2c(O)c(S(=O)(=O)c3ccc(C)cc3)c(=O)oc2c1 | > 100 | > 100 | > 100 | > 100 |  | > 100 | > 100 | > 100 | > 100 | 
4 | O/N=C1/C2CC3CC1(c1ccccc1)CC(/C3=N/O)/C2=N\O (stereo not given) | > 100 |  | > 100 | > 100 | > 100 | > 100 | > 100 | > 100 |  | > 100
5 | CCNc1ncnc2c1nnn2CC | > 100 | > 100 | > 100 | > 100 | > 100 | > 100 | > 100 |  | > 100 | > 100
6 | O=S(=O)(O)c1cc(O)c2c(O)c(N=Nc3cccc4ccccc34)c(S(=O)(=O)O)cc2c1 | > 100 | > 100 | > 100 | > 100 | > 100 | > 100 |  | > 100 | > 100 | > 100
7 | C#CCSc1nc(N)c2ncn(C3OC(COP(=O)(O)O)C(O)C3O)c2n1 (stereo not given) | > 239 | > 239 | > 239 | > 239 | > 239 | > 239 | > 239 |  |  | 
8 | C/C(=C\Cc1cc(O)ccc1O)CCc1c(C)c(O)c(O)c(C=O)c1C | > 100 | 34.7 | 80.3 | 52.8 |  | > 100 | > 100 |  |  | 
9 | COc1cc2c(cc1C)NC(=O)/C2=C\c1ccncc1 | > 100 | > 100 |  | 20.2 |  | 21.4 | > 100 |  | 10.7 | 
10 | CCOC(=O)c1c(N2CCOCC2)[nH]c(=O)c(C(c2cccs2)c2c(O)c(C(=O)OCC)c(N3CCOCC3)[nH]c2=O)c1O | > 100 | > 100 | > 100 | > 100 | > 100 | > 100 |  | > 100 | > 100 | > 100
11 | CC(=O)O[C@H]1CN(S(=O)(=O)c2ccc(C)cc2)C[C@@H]1C1CCCCC1 | > 100 | 82.4 | 79.7 | > 100 | 49.2 | 72.2 |  |  | 58.5 | > 100
12 | Cc1cc(S(=O)(=O)Nc2nc3ccccc3n2-c2ccccc2)c(S)cc1Cl | > 100 | > 100 | > 100 | > 100 | > 100 |  | > 100 | > 100 | > 100 | > 100

— PubChem BioAssay (NCI)
